In US8344181B2, “N-2 adamantanyl-2-phenoxy-acetamide derivatives as 11-beta hydroxysteroid dehydrogenase inhibitors” (Janssen Pharmaceutica N.V., priority 2004, dated 2013):

Columns and labels:
11β-HSD1 = biological target: T1, 11β-HSD1 (Mus musculus, UniProt P50172); experiment: Cellular assay of 11β-HSD1 activity in differentiated 3T3-L1 cells; assay type: cell-based; conditions: 4 hour pre-incubation, 10^-5M to 10^-10M, read-out: HSD1 cellular 3T3-L1 Score
T1 construct: endogenous in cells; host or cells: 3T3-L1 (ATCC-CL-173), differentiated into adipocytes
T1 sequence (P50172 whole entry): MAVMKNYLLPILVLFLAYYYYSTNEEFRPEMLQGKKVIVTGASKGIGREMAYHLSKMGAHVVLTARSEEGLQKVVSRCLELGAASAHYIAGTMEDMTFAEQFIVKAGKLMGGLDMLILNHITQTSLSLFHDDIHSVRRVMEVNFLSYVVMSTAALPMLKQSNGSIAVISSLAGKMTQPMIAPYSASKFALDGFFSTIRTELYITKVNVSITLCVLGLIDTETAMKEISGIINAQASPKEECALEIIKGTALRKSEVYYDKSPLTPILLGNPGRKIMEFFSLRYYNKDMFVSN
Experimental: The effects on 11β-HSD1 activity was measured in differentiated 3T3-L1 cells and rat hepatocytes.
Mouse fibroblast 3T3-L1 cells (ATCC-CL-173) were seeded at a density of 16500 cells/ml in 12 well plates and grown for 7 days in DMEM medium (supplemented with 10% heat inactivated foetal calf serum, 2 mM glutamine and 25 mg gentamycin) at 37° C. in a humidified 5% CO2 atmosphere. Medium was refreshed twice a week. Fibroblasts were differentiated into adipocytes at 37° C. in a 5% CO2 humidified atmosphere in growth medium containing 2 μg/ml insulin, 55 μg/ml IBMX and 39.2 μg/ml dexamethasone.
Primary hepatocytes from male rats were seeded on normal Falcon 12 well plates at a density of 250000 cells/well and incubated for 16 hours at 37° C. in a 5% CO2 humidified atmosphere in DMEM-HAM's F12 medium containing 5% Nu-serum, 100 U/ml penicillin, 100 μg/ml streptomycin, 0.25 μg/ml amphotericin B, 50 μg/ml gentamycin sulfate, 5 μg/ml insulin and 392 ng/ml dexamethasone. Following a 4 hour pre-incubation with test compound, 0.5 μCi ^3H-cortisone or dehydrocorticosterone, was added to the 3T3-L1 cultures. One hour later, the medium was extracted on Extrelut^3-columns with 15 ml diethyl ether and the extract was analysed by HPLC as described above. The effects of JNJ-compounds on rat hepatocyte HSD1 activity was measured after an incubation period of 90 minutes with 0.5 μCi^3H-dehydrocorticosterone. Corticosterone formation was analysed by HPLC.
(§1) As for the enzymatic assays, the compounds to be tested were taken from a stock solution and tested at a final concentration ranging from 10^−5M to 10^−10M. From the thus obtained dose response curves, the pIC50 value was calculated and scored as follows; Score 1=pIC50 value<5, Score 2=pIC50 value in the range of 5 to 6, Score 3=pIC50 value>6. (in this table NT stands for Not Tested).

11β-HSD2 = biological target: T2, 11β-HSD2 (Homo sapiens, UniProt P80365); experiment: Cellular assay of 11β-HSD2 activity in HepG2 cells; assay type: cell-based; conditions: 4 hour pre-incubation, 10^-5M to 10^-10M, read-out: HSD2 cellular HepG2 Score
T2 construct: endogenous in cells; host or cells: HepG2 (ATCC HB-8065)
T2 sequence (P80365 1-405): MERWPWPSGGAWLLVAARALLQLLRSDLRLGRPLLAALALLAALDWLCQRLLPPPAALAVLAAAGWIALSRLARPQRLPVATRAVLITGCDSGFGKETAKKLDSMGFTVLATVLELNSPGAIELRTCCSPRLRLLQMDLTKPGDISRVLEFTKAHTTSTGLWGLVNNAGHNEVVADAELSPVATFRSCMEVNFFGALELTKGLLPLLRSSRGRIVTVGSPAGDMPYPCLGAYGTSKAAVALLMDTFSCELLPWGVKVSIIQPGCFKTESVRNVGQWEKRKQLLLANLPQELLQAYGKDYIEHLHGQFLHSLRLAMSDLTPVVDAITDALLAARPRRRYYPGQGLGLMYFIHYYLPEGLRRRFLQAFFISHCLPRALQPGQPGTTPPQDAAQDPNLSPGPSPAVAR
Experimental: The effects on 11β-HSD2 activity was studied in HepG2 and LCC-PK1-cells HepG2-cells (ATCC HB-8065) were seeded in 12 well plates at a density of 100,000 cells/ml and grown at 37° C. in a humidified 5% CO2 atmosphere in MEM-Rega-3 medium supplemented with 10% heat inactivated foetal calf serum, 2 mM L-glutamine and sodium bicarbonate). Medium was refreshed twice a week.
Following a 4 hour pre-incubation with test compound, 0.5 μCi ^3H-cortisol or corticosterone, was added to the cultures. One hour later, the medium was extracted on Extrelut^3-columns with 15 ml diethyl ether and the extract was analysed by HPLC as described above.
as §1

| Compound | IC50 (11β-HSD1) [nM] | IC50 (11β-HSD2) [nM] |
| --- | --- | --- |
| Cc1cccc(NC(C)(C)C(=O)N[C@H]2[C@@H]3CC4C[C@H]2C[C@](O)(C4)C3)c1 [Compound 55] | < 1000 | > 10000 |
| O=C(N[C@H]1[C@@H]2CC3C[C@H]1C[C@](O)(C3)C2)[C@@H]1CCc2cc(F)ccc2O1 [Compound 22] | < 1000 | 1000 to 10000 |
| Cc1cc(C)cc(OC(C)(C)C(=O)NC2C3CC4CC(C3)CC2C4)c1 (stereo not drawn) [Compound 2] | < 1000 | > 10000 |
| Cc1cc(Cl)ccc1OC(C)(C)C(=O)N[C@H]1[C@@H]2CC3C[C@H]1C[C@](N)(C3)C2 [Compound 32] | < 1000 | > 10000 |
| CN1CC(C(=O)N[C@@H]2[C@@H]3CC4C[C@H]2C[C@@](O)(C4)C3)Oc2ccccc21 (stereo partly drawn) [Compound 6] | < 1000 | > 10000 |
| CC(=O)N[C@@]12CC3C[C@H](C1)C(NC(=O)C(C)(C)Nc1cccc(C(=O)O)c1)[C@@H](C3)C2 (stereo partly drawn) [Compound 97] | > 10000 | – |
| COc1cc(OC)cc(OC(C)(C)C(=O)N[C@H]2[C@@H]3CC4C[C@H]2C[C@](O)(C4)C3)c1 [Compound 17] | < 1000 | 1000 to 10000 |
| COC(=O)c1cccc(NC(C)(C)C(=O)N[C@H]2[C@@H]3CC4C[C@H]2C[C@](F)(C4)C3)c1 [Compound 78] | < 1000 | – |
| Cc1cc(Cl)ccc1OC(C)(C)C(=O)N[C@H]1[C@@H]2CC3C[C@H]1C[C@](O)(C3)C2 [Compound 1] | < 1000 | < 1000 |
| CC(C)(Oc1cccc(C(F)(F)F)c1)C(=O)N[C@H]1[C@@H]2CC3C[C@H]1C[C@](NS(C)(=O)=O)(C3)C2 [Compound 83] | < 1000 | 1000 to 10000 |
| CC(C)(Oc1cccc(C(F)(F)F)c1)C(=O)N[C@H]1[C@@H]2CC3C[C@H]1C[C@](N)(C3)C2 [Compound 81] | < 1000 | > 10000 |
| CC(C)(Oc1cccc(Br)c1)C(=O)N[C@H]1[C@@H]2CC3C[C@H]1C[C@](NC(=O)CCl)(C3)C2 [Compound 90] | < 1000 | 1000 to 10000 |
| COc1ccc(NC(C)(C)C(=O)N[C@H]2[C@@H]3CC4C[C@H]2C[C@](NC(C)=O)(C4)C3)cc1 [Compound 76] | < 1000 | > 10000 |
| O=C(N[C@H]1[C@@H]2CC3C[C@H]1C[C@](O)(C3)C2)C1CCc2ccccc2O1 (stereo partly drawn) [Compound 26] | < 1000 | < 1000 |
| Cc1cccc(NC(C)(C)C(=O)N[C@H]2[C@@H]3CC4C[C@H]2C[C@](F)(C4)C3)c1 [Compound 57] | < 1000 | > 10000 |
| COC(=O)c1cccc(NC(C)(C)C(=O)N[C@H]2[C@@H]3CC4C[C@H]2C[C@](O)(C4)C3)c1 [Compound 75] | < 1000 | > 10000 |
| Cc1cc(Cl)ccc1OC(C)(C)C(=O)N[C@H]1[C@@H]2CC3C[C@H]1C[C@](N1CCCC1=O)(C3)C2 [Compound 39] | < 1000 | < 1000 |
| CN(C)S(=O)(=O)N[C@@]12CC3C[C@H](C1)[C@H](NC(=O)C(C)(C)Oc1cccc(C(F)(F)F)c1)[C@@H](C3)C2 [Compound 92] | < 1000 | 1000 to 10000 |
| CC(C)(Nc1cccc(C(F)(F)F)c1)C(=O)N[C@H]1[C@@H]2CC3C[C@H]1C[C@](F)(C3)C2 [Compound 61] | < 1000 | > 10000 |
| Cc1cc(Cl)ccc1OC(C)(C)C(=O)N[C@H]1[C@@H]2CC3C[C@H]1C[C@](NS(C)(=O)=O)(C3)C2 [Compound 33] | < 1000 | 1000 to 10000 |
| COC(=O)CC(=O)N[C@@]12CC3C[C@H](C1)[C@H](NC(=O)C(C)(C)Oc1ccc(Cl)cc1C)[C@@H](C3)C2 [Compound 38] | < 1000 | 1000 to 10000 |
| CC(C)(Oc1ccc(Cl)cc1)C(=O)N[C@H]1[C@@H]2CC3C[C@H]1C[C@](NC(=O)CCl)(C3)C2 [Compound 94] | < 1000 | 1000 to 10000 |
| CC(C)(Oc1cccc(C(F)(F)F)c1)C(=O)N[C@H]1[C@@H]2CC3C[C@H]1C[C@](NS(=O)(=O)CC(F)(F)F)(C3)C2 [Compound 88] | < 1000 | 1000 to 10000 |

| Compound | IC50 (11β-HSD1) [nM] | IC50 (11β-HSD2) [nM] |
| --- | --- | --- |
| CC(=O)N[C@@]12CC3C[C@H](C1)[C@H](NC(=O)C(C)(C)Oc1ccc(Cl)cc1C)[C@@H](C3)C2 [Compound 29] | < 1000 | < 1000 |
| Cc1ccc(OC(C)(C)C(=O)N[C@H]2[C@@H]3CC4C[C@H]2C[C@](OCc2ccccc2)(C4)C3)cc1 [Compound 52] | < 1000 | 1000 to 10000 |
| Cc1ccc(S(=O)(=O)N[C@@]23CC4C[C@H](C2)[C@H](NC(=O)C(C)(C)Oc2cccc(C(F)(F)F)c2)[C@@H](C4)C3)cc1 [Compound 89] | < 1000 | > 10000 |
| Cc1ccccc1NC(C)(C)C(=O)N[C@H]1[C@@H]2CC3C[C@H]1C[C@](F)(C3)C2 [Compound 35] | < 1000 | 1000 to 10000 |
| CC(C)(Oc1cc(C(F)(F)F)ccc1Cl)C(=O)N[C@H]1[C@@H]2CC3C[C@H]1C[C@](N)(C3)C2 [Compound 101] | < 1000 | – |
| O=C(N[C@H]1[C@@H]2CC3C[C@H]1C[C@](O)(C3)C2)c1cc2ccccc2o1 [Compound 23] | < 1000 | > 10000 |
| COc1cccc(OC(C)(C)C(=O)N[C@H]2[C@@H]3CC4C[C@H]2C[C@](O)(C4)C3)c1 [Compound 14] | < 1000 | < 1000 |
| CC(C)(C(=O)N[C@H]1[C@@H]2CC3C[C@H]1C[C@](O)(C3)C2)S(=O)(=O)c1ccc(Cl)cc1 [Compound 3] | < 1000 | < 1000 |
| CC(C)(C(=O)N[C@H]1[C@@H]2CC3C[C@H]1C[C@](O)(C3)C2)[S+]([O-])c1ccc(Cl)cc1 (stereo partly drawn) [Compound 5] | < 1000 | – |
| Cc1cc(Cl)ccc1OC(C)(C)C(=O)N[C@H]1[C@@H]2CC3C[C@H]1C[C@](C(=O)O)(C3)C2 [Compound 50] | < 1000 | 1000 to 10000 |
| COc1cccc(NC(C)(C)C(=O)N[C@H]2[C@@H]3CC4C[C@H]2C[C@](F)(C4)C3)c1 [Compound 56] | < 1000 | > 10000 |
| COC(=O)c1ccc(NC(C)(C)C(=O)NC2[C@@H]3CC4C[C@H]2C[C@](F)(C4)C3)cc1 (stereo partly drawn) [Compound 96] | 1000 to 10000 | – |
| CC(C)(Nc1cccc(C(=O)O)c1)C(=O)N[C@H]1[C@@H]2CC3C[C@H]1C[C@](O)(C3)C2 [Compound 86] | 1000 to 10000 | – |
| Cc1cc(Cl)ccc1OC(C)(C)C(=O)N[C@H]1[C@@H]2CC3C[C@H]1C[C@](NC(=O)NC(C)(C)C)(C3)C2 [Compound 71] | 1000 to 10000 | – |
| CC(C)(Nc1cccc(C(=O)O)c1)C(=O)N[C@H]1[C@@H]2CC3C[C@H]1C[C@](F)(C3)C2 [Compound 82] | 1000 to 10000 | – |
| Cc1ccccc1OC(C)(C)C(=O)N[C@H]1[C@@H]2CC3C[C@H]1C[C@](N)(C3)C2 [Compound 103] | < 1000 | – |
| CC(C)(Oc1ccccc1C(F)(F)F)C(=O)N[C@H]1[C@@H]2CC3C[C@H]1C[C@](N)(C3)C2 [Compound 102] | < 1000 | – |
| CC(C)(Oc1cccc(Br)c1)C(=O)N[C@H]1[C@@H]2CC3C[C@H]1C[C@](NC(=O)OCCCl)(C3)C2 [Compound 98] | < 1000 | – |
| COc1cc(F)ccc1OC(C)(C)C(=O)N[C@H]1[C@@H]2CC3C[C@H]1C[C@](N)(C3)C2 [Compound 105] | < 1000 | – |
| CC(C)(Oc1ccccc1Cl)C(=O)N[C@H]1[C@@H]2CC3C[C@H]1C[C@](N)(C3)C2 [Compound 99] | < 1000 | – |
| CC(C)(Oc1cccc(C(F)(F)F)c1Cl)C(=O)N[C@H]1[C@@H]2CC3C[C@H]1C[C@](N)(C3)C2 [Compound 100] | < 1000 | – |
| COC(=O)c1ccc(NC(C)(C)C(=O)N[C@H]2[C@@H]3CC4C[C@H]2C[C@](O)(C4)C3)cc1 [Compound 79] | < 1000 | – |
